# What was measured:
# [1] = system: PBMCs; assay: Single cell RNA sequencing of PBMCs; assay type: in vivo, human
# [2] = system: circulating immune cells; assay: Clinical hemocytometry of circulating immune cells; assay type: in vivo, human; details: d28 vs baseline, 1000 mg/day oral
# Method: During the baseline and follow-up visits, blood was drawn by a physician or physician's assistant to assess blood biochemistry parameters and haematology. Analysis was performed using clinically validated systems at the University Hospital Frankfurt, Germany. The aim of the present study was to globally assess the effect of UA on the immune system, in particular with respect to parameters of immune aging. We therefore performed clinical hemocytometry to first categorize circulating immune cells, comparing immune composition at baseline and upon the last study visit (FIG. 1A).
# [3] = system: DNA methylation; assay: DNA methylation biological age clocks (TruDiagnostic); assay type: in vivo, human; details: d28 vs start of intervention, 1000 mg/day oral; no decrease with placebo
# From the text: Blood taken from the participants at baseline and the last study visit (d28) time points were applied to dried blood cards and processed by TruDiagnostic™. The test uses DNA methylation data analysis to calculate biological ages using the PhenoAge 2nd generation clock and the Hannum 1st generation clock. The Urolithin A intervention group's biological (immune cell-blood based) age was reduced by a median of about 2 years from the start of the intervention, as calculated by the PhenoAge clock (FIG. 11A). […] A decrease in biological age was not observed in the Placebo group.
# [4] = Clinical trial adverse event reporting; details: Group A n = 25; 1000 mg/day oral, 28 days
# [5] = human, in vivo
# [6] = system: TSCM; details: in vitro (Denk et al. Immunity 2022); cited from earlier work
# [7] = system: PBMCs; assay: Spectral flow cytometry immune phenotyping of PBMCs; assay type: in vivo, human
# Method: Spectral flow cytometry to broadly analyse immune composition was performed on PBMCs from 25 UA and 25 placebo individuals from the cohort. Flow cytometry staining was performed in three batches, to minimize batch-related effects.
# PBMC were thawed and allowed to recover for 3 hours in uncoated cell culture dishes. All samples for any particular donor series were thawed together. For the intracellular panel, cells were stained after recovery with the surface panel, then fixed and permeabilized using the ThermoFisher Foxp3 fix/perm system, followed by staining for intracellular markers. For the surface-only panel, cells were treated with Bafilomycin A1 (0.5 μM) for 45 minutes, followed by 45 minutes incubation with 5-dodecanoylaminofluorescein di-β-D-galactopyranoside (C12FDG) before harvest and surface staining. All cells were analyzed on a Cytek Aurora cytometer. FCS files were exported into FlowJo (BD) for further analysis.
# Raw data for all 64 output channels were unmixed using library single-color reference controls for each marker. Spectral compensation for the resulting unmixed data was corrected by manually adjusting a 31×31 matrix of spectral overlaps. Once the data was properly compensated, each individual marker was checked for signal and specificity. The resulting data was then manually gated using a representative sample. The gates are then applied to the other samples in the batch, while spot-checking the gating of the other samples for consistency with the first sample gated.
# [8] = after 28 days of UA compared to placebo
# [9] = 28 days, 1000 mg/day oral, vs placebo
# [10] = d28, 1000 mg/day oral, between the two groups
# [11] = d28, 1000 mg/day oral, not present after placebo
structure (smiles),measurement,setting,value
O=c1oc2cc(O)ccc2c2ccc(O)cc12 [Urolithin A],Activation markers CD69 and CXCR4 in NK cells,[1]; after 28 days of UA,reduction
same,"Electron transport chain components (MT-ND5, MT-CO1, MT-CO2) in naïve T cells",[1]; after 28 days of UA,induced
same,"Immediate-early genes (NR4A2, DUSP1, FOS, JUN, NFKBIA) in NK cells",[1]; after 28 days of UA,reduction
same,"Inflammatory gene signature (MX1, XAF1, ISG15, TNSF10) in B cells",[1]; after 28 days of UA,downregulated
same,"Interferon response pathway genes (IFITM2, IER2, STAT1) in monocytes",[1]; after 28 days of UA,Strongest downregulation
same,"Mitochondrial genes (MT-CYB, MT-ND5, MT-ATP8, MT-CO1) and NAMPT in monocytes",[1]; after 28 days of UA,strong upregulation
same,"Protein Kinase A (PKA) signaling and other immune inhibitory pathways, CD8+ T cells",[1]; after 28 days of UA,strongly inhibited
same,"T cell receptor (TCR) signaling, canonical pathway analysis, CD8+ T cells",[1]; after 28 days of UA,activation
same,cAMP-responsive element modulator (CREM) in CD8+ TEM subset,[1]; after 28 days of UA,downregulation
same,"Differentially expressed genes in CD8+ T cells, down",[1]; [8],37 genes
same,"Differentially expressed genes in CD8+ T cells, up",[1]; [8],52 genes
same,"Genes associated with T cell exhaustion, suppression and hypofunction (NR4A2, CREM, TGFB1, METRNL) in CD8+ T cells",[1]; [8],downregulated
same,IL7R in CD8+ T cells,[1]; [8],induction
same,Wnt-associated stemness transcription factors TCF7 and LEF1 in CD8+ T cells,[1]; [8],upregulation
same,"Differentially expressed genes in CD8+ T cells, total","[1]; after 28 days of UA compared to placebo, five participants",89 genes
same,Monocytes (total count),[2],did not show marked alterations
same,Neutrophiles (total count),[2],did not show marked alterations
same,Total leukocytes (count),[2],did not show marked alterations
same,Circulating eosinophiles (total count),[2]; not observed with placebo,significantly more
same,Circulating lymphocytes (total count),[2]; not observed with placebo,significantly more
same,"Reduction of biological (immune cell-blood based) age, PhenoAge clock, median",[3],about 2 years
same,"Post-emergent AEs: Infections and Infestations, Covid-19",[4],1 (4%) n (%)
same,Intensity of adverse events noted during the study,[5],all mild
same,TSCM formation,[6],induces TSCM formation
same,CD8+ TEMRA,"[7]; 28 days, 1000 mg/day oral",remained unaffected
same,CD8+ central memory cells (TCM),"[7]; 28 days, 1000 mg/day oral",remained unaffected
same,CD8+ virtual memory cells (TVM),"[7]; 28 days, 1000 mg/day oral",remained unaffected
same,CD8+ TSCM,"[7]; 28 days, 1000 mg/day oral, UA vs placebo group",no differences
same,Proportion of naïve CD8+ T cells (TN) among total PBMCs,"[7]; 28 days, 1000 mg/day oral, compared to placebo",increased
same,CD8+ effector memory cells (TEM),[7]; [9],concomitantly reduced
same,Percentage of CD4+ T cells among total PBMCs,[7]; [9],no differences
same,Percentage of CD8+ T cells among total PBMCs,[7]; [9],no differences
same,Percentage of circulating γδ T cells among total PBMCs,[7]; [9],no differences
same,Percentage of total αβCD3+ T cells among total PBMCs,[7]; [9],no differences
same,Nonclassical monocytes (CD14loCD16hi) among total PBMCs,"[7]; after 28 days, 1000 mg/day oral, compared to placebo",increased
same,Ki67 in CD8+ cells,"[7]; after last study visit (d28), 1000 mg/day oral, not present after placebo",more
same,CD4+ TCM population,"[7]; d28, 1000 mg/day oral",no difference
same,CD4+ TEM population,"[7]; d28, 1000 mg/day oral",no difference
same,CD4+ TN population,"[7]; d28, 1000 mg/day oral",no difference
same,CD4+ TSCM population,"[7]; d28, 1000 mg/day oral",no difference
same,CD4+ Th1 cells (T-bet),"[7]; d28, 1000 mg/day oral",no changes
same,CD56dimCD16bright NK cells among total PBMCs,"[7]; d28, 1000 mg/day oral",markedly expanded
same,Circulating DCs,"[7]; d28, 1000 mg/day oral",did not change
same,Circulating ILCs,"[7]; d28, 1000 mg/day oral",did not change
same,"Circulating T follicular helper cells (Tfh1, Bcl-6)","[7]; d28, 1000 mg/day oral",no changes
same,FoxP3+ Treg,"[7]; d28, 1000 mg/day oral",no changes
same,Gata3+ Th2 cells,"[7]; d28, 1000 mg/day oral",no changes
same,NK cell inhibitory receptor KIR expression,"[7]; d28, 1000 mg/day oral",No change
same,NK cell inhibitory receptor KLRG1 expression,"[7]; d28, 1000 mg/day oral",No change
same,NK cell inhibitory receptor NKG2A expression,"[7]; d28, 1000 mg/day oral",No change
same,PD-1 expression in CD8+ cells,"[7]; d28, 1000 mg/day oral",unaltered
same,Senescence marker p16,"[7]; d28, 1000 mg/day oral",no difference
same,Senescence marker p21,"[7]; d28, 1000 mg/day oral",no difference
same,Classical monocytes,[7]; [10],did not undergo change
same,Intermediate monocytes (CD14hiCD16hi),[7]; [10],did not undergo change
same,Percentage of plasma cells among PBMCs,[7]; [10],no changes
same,Percentage of plasmablasts among PBMCs,[7]; [10],no changes
same,Percentage of total B cells among PBMCs,[7]; [10],no changes
same,Specific B cell subsets,[7]; [10],no changes
same,Senescence-associated β-galactosidase (SA-β-GAL) in circulating CD8+ cells,[7]; [11],increased
same,TOX expression in CD8+ cells,[7]; [11],small reduction
same,HLA-DR on classical monocytes,"[7]; final study visit (d28), 1000 mg/day oral",less

# — patent publication US20250345309A1, “IMMUNE HEALTH IMPROVERS” (Amazentis SA, priority 2024, published 2025)
